What is called IC50 is the midpoint of a concentration-inhibition curve.

One assay deals with vascular smooth muscle. The conditions noted are these: according to data in European Patent No. 41,757; cited from earlier work.
For another assay, the system named is systemic hemodynamics. Description: Effects on systemic hemodynamics in dogs anaesthetized with pentobarbital (i.v. bolus). The assay is classed as in vivo, dog. As to conditions: for Heart rate: average ± SD, basal: Compound II 167±15, Compound A 178±11; for Heart index: basal: Compound II 1.547±0.147, Compound A 1.820±0.311; for Total peripheral resistances: basal: Compound II 78.497±8.587 (** p<0.01), Compound A 63.985±5.037; for Arterial pressure, minimum: basal: Compound II 101±5 (** p<0.01), Compound A 97±11; for Arterial pressure, medium: basal: Compound II 117±7 (** p<0.01), Compound A 112±12; for Maximum ejection rate: basal: Compound II 126.79±14.41 (* p<0.05), Compound A 138.59±21.74; for Arterial pressure, maximum: basal: Compound II 149±11 (* p<0.05), Compound A 143±14. As to the method: (§1) Catheters for detection of arterial pressure and flow electromagnetic transducers for measuring heart flow (heart index) and coronary flow were inserted in dogs anaesthetized with pentobarbital. The resistances were calculated from the pressure/flow ratio.

For assay [1], the system named is smooth muscle cells isolated from rat aorta. Description: Inhibition of arterial smooth muscle cell proliferation. Type of assay: cell-based. As to the method:
A culture of smooth muscle cells was isolated by rat aorta incubated in the presence of the tested Compounds II, A, B, C and D for 24, 48 and 72 hours in a minimal essential medium added with bovine fetal serum: at the above intervals the number of cells in the culture was counted by a hemocytometer and compared with the number of cells in a control culture.

Assay [2] relates to serotonin-induced spasm of rabbit aorta. Description: Antagonism towards vascular spasms induced by serotonin, aorta strips. Type of assay: cell-based. The conditions noted are these: Oryctolagus cuniculus, Krebs solution 37 °C, fiduciary limits 0.05-0.56. On the procedure: (§2) (a) Antagonism towards vascular spasms induced by serotonin. Vascular strips of mesenteric artery and rabbit aorta were put into baths for isolated organ containing Krebs solutions at 37° C. and aerated with a mixture of oxygen and carbon dioxide 95:5.
(§3) The addition of serotonin to the bath causes a spasm which is detected by a strength transducer.
(§4) The antagonistic activity of compound II, evaluated as inhibiting concentration (IC50), gave the following results: […]

Assay [3] has as its system serotonin-enhanced aggregation of dog blood platelets. Description: Enhancement in aggregation induced by serotonin, dog blood platelets. Type of assay: cell-based. As to conditions: Canis lupus familiaris, Platelet, dihydrochloride, read-out: Threshold Inhibiting Concentration (TlC). As to the method:
(b) Enhancement in aggregation induced by serotonin.
The addition of 5HT to dog blood platelets causes the aggregation of non-aggregating concentrations of adenosine diphosphate, collagen and adrenaline.
The effects of compound II (dihydrochloride) expressed as single concentration, were evaluated by pre-incubating the blood platelets with different concentrations of the product and expressed as Threshold Inhibiting Concentration (TlC): […]

Assay [4] has as its system serotonin-induced shape change of rat blood platelets. Description: Change of the shape of blood platelets induced by serotonin. The conditions noted are these: Platelet, pre-treated, dihydrochloride. The assay is classed as cell-based. As to the method: (c) Change of the shape of blood platelets induced by serotonin. The addition of serontonin to rat blood platelets causes a change in the shape which is measured by an aggregometer as maximum decrease in light transmission.
Compund II (dihydrochloride) was tested by pre-treating the blood platelets with different concentrations of product and the activity was expressed as 50% inhibiting concentration (IC50).

In the next assay the test system is coronary hemodynamics. The assay is described as follows: Effects on coronary hemodynamics in dogs anaesthetized with pentobarbital (i.v. bolus). The assay is classed as in vivo, dog. As to the method:
as §1

Another assay relates to serotonin. The assay is described as follows: Specific antagonism of serotonin effects on blood platelets and vessels (general statement). From the text: Evaluation of specific antagonistic activity to serotonin (5TH) effects
The subject of assay [5] is arteriosclerotic plaques in aorta. The assay is described as follows: Prevention of the formation of arteriosclerotic plaques in rabbits on hypercholesterolemic diet. Type of assay: in vivo, rabbit. As to the method: Rabbits HY/CR were feeded with iperchloesterolemic diet (2% (cholesterol) for 60 days at the end of which, by planimetry after colouring aorta with Sindon Black, the extent of arteriosclerotic plaques was evaluated. […]

The test system of assay [6] is serotonin-induced spasm of mesenteric artery. Description: Antagonism towards vascular spasms induced by serotonin, mesenteric artery strips. As to conditions: Krebs solution 37 °C, fiduciary limits 0.15-0.31. The assay is classed as cell-based. On the procedure:
as §2, §3, §4

Where two headings read alike, the source gives them in different places.

In the case of `COc1cc(CN(C)CCN(C)CCC(c2ccccc2)c2ccccc2)cc(OC)c1OC` [Compound A, N,N'-dimethyl-N-(3,4,5-trimethoxybenyl)-N'-(3,3-diphenyl-propyl)-ethylenediamine, reference compound], the “Anti-spasmodic activity (in words)” value in the assay with vascular smooth muscle is reported as “most active compound”. Further, in the assay on systemic hemodynamics (dog, 1 mg/kg (four times higher dose)), the “Hemodynamic effects compared with Compound II (in words)” value is listed as “Comparable effects to compound II”. In addition, the “Cardiac output (in words)” value with systemic hemodynamics (dog, Compound A at 1 mg/kg) is “decrease in cardiac output”. Besides, in the assay with systemic hemodynamics (dog, i.v. bolus 0.25 mg/kg), the “Effects on peripheral vascular resistances and on arterial pressure (in words)” value was “borderline effects”; the Heart rate was found to be 147±8 beats/min; the Heart index amounted to 1.615±0.237 l/min/m^2; the Total peripheral resistances came to 45.023±2.849 mmHg/l/min. In the assay on systemic hemodynamics (dog, i.v. bolus 0.25 mg/kg), the “Arterial pressure, minimum” value was determined as 50±3 mmHg; the “Arterial pressure, medium” value was 71±8 mmHg; the Maximum ejection rate was 135.58±17.55 ml/sec/m^2; the “Arterial pressure, maximum” value was determined as 98 mmHg. This compound also showed a Systolic index in the assay with systemic hemodynamics (dog, i.v. bolus 0.25 mg/kg, Compound A, basal 10.09±1.29 (* p<0.05)) of 11.11±1.49 ml/beatsm^2.
For `COc1cc(CN(C)CCN(C)CCC(c2ccc(F)cc2)c2ccc(F)cc2)cc(OC)c1OC` [Compound II, N,N'-dimethyl-N-(3,4,5-trimethoxybenzyl)-N'-[3,3-di-(4-fluorophenyl)-propyl]-ethylenediamine], the “Arterial smooth muscle cell proliferation (in words)” value in assay [1] is recorded as “inhibit arterial smooth muscle cell proliferation”. In addition, in assay [1] (5 μM, 24, 48 and 72 hours), the “Inhibition of cell proliferation (in words)” value was “inhibited meaningfully cell proliferation”. Moreover, the IC50 in assay [1] (rat aorta smooth muscle cells, 24, 48 and 72 hours (time of the IC50 not stated)) stood at 10 µM; in assay [2], 0.16 µM; in assay [4] it was 8.35 ± 1.35 µM; in assay [6], 0.22 µM. Also, the “Cardiac output (in words)” value with systemic hemodynamics (anesthetized dogs) was “increase in cardiac output”. Further, in the assay on systemic hemodynamics (anesthetized dogs), the “Heart rate (in words)” value is recorded as “without a contemporaneous increase in heart rate”. Further, the “Systemic vascular resistances (in words)” value with systemic hemodynamics (anesthetized dogs) was “decrease in systemic and coronary vascular resistances”. This compound registered a Systolic index in the assay on systemic hemodynamics (dog, i.v. bolus 0.25 mg/kg, Compound II, basal 9.51±1.24 (* p<0.05)) of 13.39±1.00 ml/beats/m^2. The Heart rate in the assay on systemic hemodynamics (dog, i.v. bolus 0.25 mg/kg) was 156±12 beats/min; in the assay on coronary hemodynamics (dog, coronary hemodynamics, i.v. bolus 0.25 mg/kg, basal 140±14), 143±15 beats/min. This compound also registered a Heart index with systemic hemodynamics (dog, i.v. bolus 0.25 mg/kg) of 2.088±0.240 l/min/m^2. The compound also showed a Total peripheral resistances in the assay with systemic hemodynamics (dog, i.v. bolus 0.25 mg/kg) of 44.366±4.200 mmHg/l/min. The “Arterial pressure, minimum” value with systemic hemodynamics (dog, i.v. bolus 0.25 mg/kg) came to 72±2 mmHg; with coronary hemodynamics (dog, coronary hemodynamics, i.v. bolus 0.25 mg/kg, basal 103±6) it was 87±3 mmHg. The “Arterial pressure, medium” value came to 89±3 mmHg with systemic hemodynamics (dog, i.v. bolus 0.25 mg/kg) and 102±5 mmHg with coronary hemodynamics (dog, coronary hemodynamics, i.v. bolus 0.25 mg/kg, basal 116±4). This compound also displayed a Maximum ejection rate in the assay on systemic hemodynamics (dog, i.v. bolus 0.25 mg/kg) of 174.77±10.27 ml/sec/m^2. Further, the “Arterial pressure, maximum” value with systemic hemodynamics (dog, i.v. bolus 0.25 mg/kg) is on record as 130±6 mmHg; in the assay with coronary hemodynamics (dog, coronary hemodynamics, i.v. bolus 0.25 mg/kg, basal 145±3) it was 142±5 mmHg. Further, the minimal effective concentration in assay [3] (adenosine diphosphate + serotonin) amounted to 37 ± 20 µM; in assay [3] (adrenaline + serotonin) it was 11 ± 5.4 µM; in assay [3] (collagen + serotonin) it was 5.6 ± 4 µM. Besides, the “Coronary vascular resistances (in words)” value in the assay on coronary hemodynamics (anesthetized dogs) was “decrease in systemic and coronary vascular resistances”. The compound further returned an Average coronary resistances in the assay with coronary hemodynamics (dog, i.v. bolus 0.25 mg/kg, basal 2.887±0.381, * p<0.05) of 1.301±0.141 mmHg/ml/min. The “Left circumflex coronary artery flow” value with coronary hemodynamics (dog, i.v. bolus 0.25 mg/kg, basal 41.3±3.7, * p<0.05) is 101.6 ± 10.8 mL/min. Besides, the “Antagonism of serotonin effects on blood platelets and vessels (in words)” value with serotonin is given as “able to antagonize, in a specific way, the effect of serotonin on blood platelets as well as on vessels”. Moreover, in assay [5] (rabbit, 1 mg/kg s.c. twice a day, 60 days), the “Reduction of the area of plaques in aorta” value turned out to be 40%. In addition, in assay [5] (rabbit, 3 mg/kg s.c. twice a day, 60 days), the “Reduction of the formation / area of plaques in aorta” value is 60%. Moreover, the “Prevention of the formation of arteriosclerotic plaques (in words)” value in assay [5] (rabbits on hypercholesterolemic diet) is on record as “able to prevent the formation of arteriosclerotic plaques”.
